Assay results: paper PMC9775433 (Cancers, 2022)
“And” between values parts separate entries of the source, which are not always exact repeats. Identical values can stand only once.

Assays:
Assay type in all cases: in vivo, human
Conditions in all cases: individual patient
[1] = Plasma pharmacokinetics of high-dose intermittent sunitinib (LC-MS-MS, NONMEM)
Method: Study pharmacokinetic assessment in plasma: Ethylenediaminetetraacetic acid (EDTA) blood was collected pretreatment and subsequently at multiple time points in all patients (0, 2, 4, 6, 8, 10, and 24 h post-dose on day 1 for both time schedules and thereafter at days 3, 8, 10, 15, 17, and 22 for the once weekly schedule and at days 3, 15, 17, and 29 for the once every 2 weeks schedule). All samples were centrifuged within 1 h after collection at 2000 g for 10 min (at 4 degrees Celsius (°C)), plasma was separated and stored at −80 °C until the day of analysis.
Since there is no evidence for the exact relationship between plasma and tumor concentrations, we chose to use the concentration–time data calculated by NONMEM for Cmax, the average concentration over time (Caverage) and the trough concentrations just before the next dose was administered (Ctrough) based on rich PK-data of each individual patient. […] Inter-occasion variability in bioavailability and absorption duration were allowed in the model. The control stream of the final model and the goodness-of-fit plots are supplied in the Supplementary Material (Supplementary Data S3). The developed model was used to derive the individual predictions for the Cmax, Caverage, and Ctrough. SUM concentrations were calculated.
(§1) Supplementary data S2 – Methods (Details)
(§2) samples; using a validated liquid chromatography–tandem mass spectrometry (LC-MS-MS).
(§3) The system consisted of an Acquity H‐Class UPLC system, coupled to a Xevo TQ‐S micro
(§4) tandem mass spectrometer. […]

[2] = Skin drug concentration in skin biopsy at day 17 (LC-MS-MS)
Method: (§5) All tissue samples were immediately snap frozen (within 1 min) in liquid nitrogen and cryopreserved at −80 °C until the day of analysis.
(§6) Tissue biopsies were weighed accurately before analysis. Tissue homogenate was prepared by using a mechanical homogenizer. The tumor tissue was homogenized with the precellys lysing kit (bertin instruments®) in the Roche MagNA lyzer®. […] Tissue homogenate samples were directly analyzed.
as §1, §2, §3, §4

[3] = Tumor drug concentration in tumor needle biopsy at day 17 (LC-MS-MS)
Method: as §5, §6, §1, §2, §3, §4

Cmax plasma - N-desethyl Sunitinib concentration ([1]; sunitinib 200 mg O1W): 68 ng/mL and 40 ng/mL and 58 ng/mL | Cmax plasma - N-desethyl Sunitinib concentration ([1]; sunitinib 300 mg O2W): 29 ng/mL and 7.49 ng/mL and 27 ng/mL | Cmax plasma - N-desethyl Sunitinib concentration ([1]; sunitinib 500 mg O2W): 32 ng/mL and 29 ng/mL and 51 ng/mL | Cmax plasma - N-desethyl Sunitinib concentration ([1]; sunitinib 600 mg O2W): 45 ng/mL and 41 ng/mL | Skin - N-desethyl Sunitinib concentration ([2]; sunitinib 300 mg O2W): 124 µg/L and 218 µg/L | Skin - N-desethyl Sunitinib concentration ([2]; sunitinib 400 mg O1W): 406 µg/L | Skin - N-desethyl Sunitinib concentration ([2]; sunitinib 800 mg O2W): 194 µg/L | Tumor - N-desethyl Sunitinib concentration ([3]; sunitinib 400 mg O2W): 400 µg/L | Tumor - N-desethyl Sunitinib concentration ([3]; sunitinib 800 mg O2W): 330 µg/L
Structure (SMILES): CCNCCNC(=O)c1c(C)[nH]c(/C=C2\C(=O)Nc3ccc(F)cc32)c1C [N-desethyl sunitinib]
Cmax plasma - N-desethyl Sunitinib concentration ([1]; sunitinib 300 mg O1W): 29 ng/mL and 34 ng/mL and 28 ng/mL and 22 ng/mL and 51 ng/mL and 15 ng/mL and 94 ng/mL and 32 ng/mL and 21 ng/mL and 31 ng/mL and 33 ng/mL and 23 ng/mL and 27 ng/mL and 43 ng/mL and 210 ng/mL and 63 ng/mL and 14 ng/mL | Cmax plasma - N-desethyl Sunitinib concentration ([1]; sunitinib 400 mg O1W): 15 ng/mL and 26 ng/mL and 9.48 ng/mL and 22 ng/mL and 28 ng/mL and 25 ng/mL and 6.66 ng/mL and 44 ng/mL and 154 ng/mL and 57 ng/mL | Cmax plasma - N-desethyl Sunitinib concentration ([1]; sunitinib 400 mg O2W): 33 ng/mL and 31 ng/mL and 28 ng/mL and 34 ng/mL | Cmax plasma - N-desethyl Sunitinib concentration ([1]; sunitinib 700 mg O2W): 26 ng/mL and 52 ng/mL and 24 ng/mL and 65 ng/mL and 55 ng/mL and 51 ng/mL and 21 ng/mL and 30 ng/mL and 40 ng/mL and 59 ng/mL and 35 ng/mL and 48 ng/mL and 36 ng/mL and 34 ng/mL and 23 ng/mL and 84 ng/mL and 164 ng/mL and 150 ng/mL and 85 ng/mL and 68 ng/mL and 54 ng/mL and 76 ng/mL and 125 ng/mL and 128 ng/mL and 200 ng/mL and 57 ng/mL | Cmax plasma - N-desethyl Sunitinib concentration ([1]; sunitinib 800 mg O2W): 55 ng/mL and 84 ng/mL and 13 ng/mL and 14 ng/mL and 29 ng/mL | Skin - N-desethyl Sunitinib concentration ([2]; sunitinib 300 mg O1W): 1288 µg/L and 1388 µg/L and 267 µg/L and 1355 µg/L and 529 µg/L and 224 µg/L and 648 µg/L and 865 µg/L and 1498 µg/L and 621 µg/L and 1842 µg/L and 2193 µg/L and 488 µg/L | Skin - N-desethyl Sunitinib concentration ([2]; sunitinib 700 mg O2W): 2743 µg/L and 221 µg/L and 168 µg/L and 987 µg/L and 5179 µg/L and 572 µg/L and 425 µg/L and 429 µg/L and 380 µg/L and 326 µg/L and 5652 µg/L and 1279 µg/L and 460 µg/L and 1021 µg/L and 1060 µg/L and 896 µg/L | Tumor - N-desethyl Sunitinib concentration ([3]; sunitinib 300 mg O1W): 589 µg/L and 12025 µg/L and 812 µg/L and 1101 µg/L and 1077 µg/L and 2934 µg/L and 6513 µg/L and 22945 µg/L and 578 µg/L and 10356 µg/L and 342 µg/L and 767 µg/L | Tumor - N-desethyl Sunitinib concentration ([3]; sunitinib 700 mg O2W): 13436 µg/L and 2500 µg/L and 19730 µg/L and 2387 µg/L and 4534 µg/L and 1675 µg/L and 17843 µg/L and 555 µg/L
